Source: patent publication US11292791B2 (priority 2017, dated 2022)

Biological target: BRD4 (Homo sapiens (Human), UniProt O60885)
Settings: read-out: BRD4 IC50 (μM gmean)

| Compound | IC50 |
| --- | --- |
| COC(=O)N1c2ccc3c(nc(CCn4cccn4)n3CC(=O)NCc3ccnc(O)c3)c2CC[C@@H]1C [Example 339] | 1 to 1000 µM |
| COC(=O)N1c2ccc3c(nc(COc4ccccc4)n3[C@H]3CC[C@H](C(=O)O)CC3)c2CC[C@@H]1C [Example 633] | 1 to 1000 µM |
| COC(=O)N1c2ccc3c(nc(C(C)Cn4ccc(Cl)n4)n3C3CCCC(C(=O)O)C3)c2CC[C@@H]1C (stereo partly drawn) [Example 827] | 1 to 1000 µM |
| COC(=O)N1c2ccc3c(nc(Cc4ccc(OC)c(F)c4)n3[C@@H]3CCC[C@@H](C(=O)O)C3)c2CC[C@@H]1C [Example 481] | 1 to 1000 µM |
| COC(=O)N1c2ccc3c(nc(CC(C(=O)O)c4ccc(C(C)C)cc4)n3C3CCCOC3)c2CC[C@@H]1C (stereo partly drawn) [Example 756] | 1 to 1000 µM |
| COC(=O)N1c2ccc3c(nc(Cc4cc(C(F)(F)F)cnn4)n3[C@@H]3CCC[C@@H](C(=O)O)C3)c2CC[C@@H]1C [Example 687] | 1 to 1000 µM |
| COC(=O)N1c2ccc3c(nc(CC(C(=O)O)c4ccccc4)n3-c3cccc(C#N)c3)c2CC[C@@H]1C (stereo partly drawn) [Example 905] | 1 to 1000 µM |
| COC(=O)N1c2ccc3c(nc(CCn4cccn4)n3CC(=O)NCCc3ccccn3)c2CC[C@@H]1C [Example 338] | 1 to 1000 µM |
| COC(=O)N1c2ccc3c(nc(CC(C(=O)O)c4ccc(C(C)C)cc4)n3C3CCCOC3)c2CC[C@@H]1C (stereo partly drawn) [Example 888] | 1 to 1000 µM |
| COC(=O)N1c2ccc3c(nc(Cc4ccccc4)n3C34CCC(C(=O)O)(CC3)C4)c2CC[C@@H]1C [Example 24] | 1 to 1000 µM |
| COC(=O)N1c2ccc3c(nc(C(C)OC4CCOCC4)n3C3CCC(C(=O)O)CC3)c2CC[C@@H]1C (stereo partly drawn) [Example 724] | 1 to 1000 µM |
| COC(=O)N1c2ccc3c(nc(C(C)Cc4cnn(C)c4)n3C3CCNCC3)c2CC[C@@H]1C (stereo partly drawn) [Example 928] | 1 to 1000 µM |
| COC(=O)N1c2ccc3c(nc(CC(C(=O)O)c4ccc(C)c(F)c4)n3C3CCCOC3)c2CC[C@@H]1C (stereo partly drawn) [Example 407] | 1 to 1000 µM |
| COC(=O)N1c2ccc3c(nc([C@@H](C)c4ccccc4)n3C3CCNCC3)c2CC[C@@H]1C [Example 59, methyl (S)-7-methyl-2-((S)-1-phenylethyl)-3-(piperidin-4-yl)-3,7,8,9-tetrahydro-6H-imidazo[4,5-f]quinoline-6-carboxylate] | 1 to 1000 µM |
| COC(=O)N1c2ccc3c(nc(CCn4cccn4)n3CCN3CCN(C(C)C)CC3)c2CC[C@@H]1C [Example 311] | 1 to 1000 µM |
| COC(=O)N1c2ccc3c(nc(Cc4ccc(N5CCCC5=O)cc4)n3[C@H]3CC[C@H](C(=O)O)CC3)c2CC[C@@H]1C [Example 664] | 1 to 1000 µM |
| COC(=O)N1c2ccc3c(nc(Cc4cncc(OC(C)C)c4)n3[C@@H]3CCC[C@@H](C(=O)O)C3)c2CC[C@@H]1C [Example 775] | 1 to 1000 µM |
| COC(=O)N1c2ccc3c(nc(CCn4ccccc4=O)n3CCN3CC[C@H](C(N)=O)C3)c2CC[C@@H]1C [Example 327] | 1 to 1000 µM |
| COC(=O)N1c2ccc3c(nc(C(C)Cn4cc(C(F)F)cn4)n3C3CCC(C(=O)O)CC3)c2CC[C@@H]1C (stereo partly drawn) [Example 912] | 1 to 1000 µM |
| COC(=O)N1c2ccc3c(nc(CC(=O)N4CCCCC4)n3[C@@H]3CCC[C@@H](C(=O)O)C3)c2CC[C@@H]1C [Example 896] | 1 to 1000 µM |
| COC(=O)N1c2ccc3c(nc(CCC4CCOCC4)n3[C@H]3CC[C@H](C(=O)O)CC3)c2CC[C@@H]1C [Example 784] | 1 to 1000 µM |

| Compound | IC50 |
| --- | --- |
| COC(=O)N1c2ccc3c(nc(CCn4ccccc4=O)n3CC(=O)N[C@H](C)CO)c2CC[C@@H]1C [Example 378] | 1 to 1000 µM |
| COC(=O)N1c2ccc3c(nc(C(C)(C)C)n3CCN3CCOCC3)c2CC[C@@H]1C [Example 249] | 1 to 1000 µM |
| COC(=O)N1c2ccc3c(nc(CCn4cccn4)n3CC(=O)N[C@H]3CC[C@H](CO)CC3)c2CC[C@@H]1C [Example 348] | 1 to 1000 µM |
| COC(=O)N1c2ccc3c(nc(CCn4cccn4)n3CC(=O)N3CC[C@H](C(N)=O)C3)c2CC[C@@H]1C [Example 360] | 1 to 1000 µM |
| COC(=O)N1c2ccc3c(nc(CCn4cccn4)n3CC(=O)N3CC[C@@H](NC(C)=O)C3)c2CC[C@@H]1C [Example 370] | 1 to 1000 µM |
| COC(=O)N1c2ccc3c(nc(CCn4ccc(C)n4)n3[C@H]3CC[C@H](C(=O)O)CC3)c2CC[C@@H]1C [Example 39] | 1 to 1000 µM |
| COC(=O)N1c2ccc3c(nc(Cc4cnc(C)cn4)n3[C@@H]3CCC[C@@H](C(=O)O)C3)c2CC[C@@H]1C [Example 738] | 1 to 1000 µM |
| COC(=O)N1c2ccc3c(nc(CC(C(=O)O)c4cccc(C(F)F)c4)n3C3CCCOC3)c2CC[C@@H]1C (stereo partly drawn) [Example 676] | 1 to 1000 µM |
| COC(=O)N1c2ccc3c(nc(C)n3CCN3CCOCC3)c2CC[C@@H]1C [Example 248] | 1 to 1000 µM |
| COC(=O)N1c2ccc3c(nc(C(CO)c4ccccc4)n3C3CCC(C(=O)O)CC3)c2CC[C@@H]1C (stereo partly drawn) [Example 812] | 1 to 1000 µM |
| COC(=O)N1c2ccc3c(nc(C(C)Cn4cc(C)cn4)n3C3CCC(C(=O)O)CC3)c2CC[C@@H]1C (stereo partly drawn) [Example 655] | 1 to 1000 µM |
| COC(=O)N1c2ccc3c(nc(N(C)c4cccc(F)c4)n3[C@H]3CC[C@H](C(=O)O)CC3)c2CC[C@@H]1C [Example 613] | 1 to 1000 µM |
| COC(=O)N1c2ccc3c(nc(Cc4ccccc4)n3C3CC4CNCC4C3)c2CC[C@@H]1C (stereo partly drawn) [Example 98] | 1 to 1000 µM |
| COC(=O)N1c2ccc3[nH]c(CCc4ccccc4)nc3c2CC[C@@H]1C [Example 7, methyl (S)-7-methyl-2-phenethyl-3,7,8,9-tetrahydro-6H-imidazo[4,5-f]quinoline-6-carboxylate] | 1 to 1000 µM |
| COC(=O)N1c2ccc3c(nc(COC4CCCC4)n3[C@H]3CC[C@H](C(=O)O)CC3)c2CC[C@@H]1C [Example 752] | 1 to 1000 µM |
| COC(=O)N1c2ccc3c(nc(CC(C(=O)O)c4cccc5ccccc45)n3C3CCCOC3)c2CC[C@@H]1C (stereo partly drawn) [Example 580] | 1 to 1000 µM |
| COC(=O)N1c2ccc3c(nc(C(C)Cn4cc(Cl)cn4)n3C3CCS(=O)(=O)C3)c2CC[C@@H]1C (stereo partly drawn) [Example 651] | 1 to 1000 µM |
| COC(=O)N1c2ccc3c(nc(CC(C(=O)O)c4cccc(C)c4)n3C3CCCOC3)c2CC[C@@H]1C (stereo partly drawn) [Example 644] | 1 to 1000 µM |
| COC(=O)N1c2ccc3c(nc(C[C@@H](C(=O)O)c4ccccc4)n3CCN(C)C)c2CC[C@@H]1C [Example 137, (R)-3-((S)-3-(2-(dimethylamino)ethyl)-6-(methoxycarbonyl)-7-methyl-6,7,8,9-tetrahydro-3H-imidazo[4,5-f]quinolin-2-yl)-2-phenylpropanoic Acid] | 1 to 1000 µM |
| COC(=O)N1c2ccc3c(nc(CCn4cccn4)n3CC(=O)NCC3(O)CCC3)c2CC[C@@H]1C [Example 362] | 1 to 1000 µM |
| COC(=O)N1c2ccc3c(nc(Cc4cccc(C#N)c4)n3[C@H]3CC[C@H](C(=O)O)CC3)c2CC[C@@H]1C [Example 707] | 1 to 1000 µM |

| Compound | IC50 |
| --- | --- |
| COC(=O)N1c2ccc3c(nc(Cc4ccccc4)n3[C@H]3CC[C@@](C)(C(=O)O)CC3)c2CC[C@@H]1C [Example 26] | 1 to 1000 µM |
| COC(=O)N1c2ccc3c(nc(CCn4ccccc4=O)n3CC(=O)N(C)CCO)c2CC[C@@H]1C [Example 379] | 1 to 1000 µM |
| COC(=O)N1c2ccc3c(nc(Cc4ccc(C)cc4)n3[C@@H]3CCC[C@@H](C(=O)O)C3)c2CC[C@@H]1C [Example 549] | 1 to 1000 µM |
| COC(=O)N1c2ccc3c(nc(Cn4cc(C(C)C)cn4)n3[C@H]3CC[C@H](C(=O)O)CC3)c2CC[C@@H]1C [Example 714] | 1 to 1000 µM |
| COC(=O)N1c2ccc3c(nc(Cc4ccc(C(F)(F)F)nn4)n3[C@@H]3CCC[C@@H](C(=O)O)C3)c2CC[C@@H]1C [Example 777] | 1 to 1000 µM |
| C/C=C(\Oc1ccccc1)c1nc2c3c(ccc2n1[C@@H]1CCC[C@@H](C(=O)O)C1)N(C(=O)OC)[C@@H](C)CC3 [Example 522] | 1 to 1000 µM |
| COC(=O)N1c2ccc3c(nc(C(C)Cn4cc(C(F)F)cn4)n3C3CCCC(C(=O)O)C3)c2CC[C@@H]1C (stereo partly drawn) [Example 862] | 1 to 1000 µM |
| COC(=O)N1c2ccc3c(nc(C(C)Cn4cccn4)n3C3CCS(=O)(=O)C3)c2CC[C@@H]1C (stereo partly drawn) [Example 772] | 1 to 1000 µM |
| COC(=O)N1c2ccc3c(nc(CCn4cccn4)n3CC(=O)NCC3CCOCC3)c2CC[C@@H]1C [Example 357] | 1 to 1000 µM |
| COC(=O)N1c2ccc3c(nc(C(C)Cn4cccn4)n3C3CCS(=O)(=O)CC3)c2CC[C@@H]1C (stereo partly drawn) [Example 946] | 1 to 1000 µM |
| COC(=O)N1c2ccc3c(nc(Cc4ccccc4)n3CC(=O)O)c2CC[C@@H]1C [Example 285, (S)-2-(2-benzyl-6-(methoxycarbonyl)-7-methyl-6,7,8,9-tetrahydro-3H-imidazo[4,5-f]quinolin-3-yl)acetic Acid] | 1 to 1000 µM |
| COC(=O)N1c2ccc3c(nc(Cc4cc(Cl)cc(OC)c4)n3[C@@H]3CCC[C@@H](C(=O)O)C3)c2CC[C@@H]1C [Example 512] | 1 to 1000 µM |
| COC(=O)N1c2ccc3c(nc(Cc4ccccc4)n3[C@H]3CCC[C@@H](c4nnn[nH]4)C3)c2CC[C@@H]1C [Example 280, methyl (S)-3-((1S,3R)-3-(1H-tetrazol-5-yl)cyclohexyl)-2-benzyl-7-methyl-3,7,8,9-tetrahydro-6H-imidazo[4,5-f]quinoline-6-carboxylate] | 1 to 1000 µM |
| COC(=O)N1c2ccc3c(nc(CCn4ccccc4=O)n3CC(=O)NCc3ccncn3)c2CC[C@@H]1C [Example 373] | 1 to 1000 µM |
| COC(=O)N1c2ccc3c(nc(CCn4cccn4)n3CC(=O)NCc3cnn(C)c3)c2CC[C@@H]1C [Example 344] | 1 to 1000 µM |
| COC(=O)N1c2ccc3c(nc(CCn4ccccc4=O)n3CC(=O)N(C)C3CCOCC3)c2CC[C@@H]1C [Example 384] | 1 to 1000 µM |
| COC(=O)N1c2ccc3c(nc(CCn4ccccc4=O)n3CCN3CCNCC3)c2CC[C@@H]1C [Example 229] | 1 to 1000 µM |
| COC(=O)N1c2ccc3c(nc(C(C)CC4CCOCC4)n3C3CCCC(C(=O)O)C3)c2CC[C@@H]1C (stereo partly drawn) [Example 622] | 1 to 1000 µM |
| COC(=O)N1c2ccc3c(nc(C4(c5cnccn5)CC4)n3[C@@H]3CCC[C@@H](C(=O)O)C3)c2CC[C@@H]1C [Example 856] | 1 to 1000 µM |
| COC(=O)N1c2ccc3c(nc(CCn4cccn4)n3CCN3CCN(CCO)CC3)c2CC[C@@H]1C [Example 313] | 1 to 1000 µM |
| COC(=O)N1c2ccc3c(nc(CCn4cccn4)n3CC(=O)NC[C@H]3CCCO3)c2CC[C@@H]1C [Example 347] | 1 to 1000 µM |
